Reference: patent US20120058198A1, “METHODS FOR TREATING AND PREVENTING PNEUMONIA AND VENTILATOR-ASSOCIATED TRACHEOBRONCHITIS” (PULMATRIX, INC., priority 2009, published 2012)

Columns and labels:
[1] = test system: Serotype 3 Streptococcus pneumoniae; test: Mouse S. pneumoniae infection model, nebulized calcium:sodium formulations 2 hours before infection; assay type: in vivo; conditions: ampicillin synergy study; nebulized 2 h before infection; ~0.72 mg Ca/kg, ampicillin ~3 mg/kg
Procedure: Unless otherwise stated, exposure times were 3 minutes in duration. […] CFU were enumerated the following day.

bacteria = test: Pass through assay, calcium chloride dose dependence (bacterium not named); assay type: cell-based; conditions: amount delivered to mimetic, between the […] and […] solutions; from other analyses
Procedure: In these studies, the number of exposures via nebulization was different, making direct comparisons difficult. […] In this study, a single dose of each formulation was delivered to the apical surface of sodium alginate mimetic and bacteria were added immediately after exposure. […] In contrast, the 0.12M and 0.38M treatments had no effect.
All of the formulations tested above were formulated in isotonic saline. Thus, the inhibitory effects seen could be caused by the dual action of sodium and calcium ions in concert or alternatively, the effect could be driven entirely by calcium. To differentiate between these hypotheses, we tested additional calcium formulations based in water rather than saline.

| SMILES | reduction in lung bacterial titers relative to saline control [1] | critical concentration of calcium needed for the inhibition of bacteria (bacteria) |
| --- | --- | --- |
| CC1(C)S[C@@H]2[C@H](NC(=O)[C@H](N)c3ccccc3)C(=O)N2[C@H]1C(=O)O [ampicillin] | 33 fold | – |
| [Ca+2].[Cl-].[Cl-] [calcium chloride] | – | 3-4 μg of calcium per cm^2 |
